This is an account of results in PMC9402926, “Synthetic short-chain peptide analogues of H1 relaxin lack affinity for the RXFP1 receptor and relaxin-like bioactivity. Clues to a better understanding of relaxin agonist design” (Frontiers in Pharmacology, 2022).

Data set [1] addresses RXFP1-BP (ectodomain of human RXFP1 fused to the single transmembrane and cytoplasmic region of CD8). Description: competition binding with europium-labelled ligand on whole cells; whole cells in 96 well plates; HEK-293T stably expressing RXFP1-BP; single concentration of europium-labeled H2 relaxin (1 nm as printed) with or without increasing concentrations of the competing peptides; non-specific binding with 1 µM serelaxin; triplicates, 2 independent experiments; one site binding model.

Data set [2] has as its system RXFP1-BP (ectodomain of human RXFP1 fused to the single transmembrane and cytoplasmic region of CD8). Briefly: Competition binding with europium-labelled H2 relaxin in HEK-293T cells stably expressing RXFP1-BP. As to conditions: 10 µM competing peptide; 1 nm europium-labeled H2 relaxin; whole cells, 96 well plates; triplicate points, 2 independent experiments. The text has this:
Cell culture for ligand-receptor binding assays—Human embryonic kidney cells (HEK-293T) stably expressing RXFP1-BP ([Halls et al., 2005]) were used for competition binding experiments using europium-labelled H2 relaxin, as described ([Shabanpoor et al., 2012]). This construct contains the ectodomain of human RXFP1 fused to the single transmembrane and cytoplasmic region of CD8. This ectodomain-only construct has a higher affinity for single chain H2 relaxin peptides and is used as a surrogate assay for binding affinity. Assays were performed in whole cell 96 well plates assays with a single concentration of the europium-labeled H2 relaxin (1 nm) in the presence or absence of increasing concentrations of the competing peptides. Non-specific binding was assessed using 1 µM of serelaxin. Each concentration point was assessed in triplicate in 2 independent experiments. The binding data were analyzed using GraphPad Prism 9 and expressed as mean ± SEM. They were fitted using a one site binding model.

Data set [3] relates to RXFP1. Description: ERK1/2 phosphorylation in TGF-β1-induced myofibroblasts from NIH-3T3 fibroblasts expressing RXFP1, Western blot. Particulars: mouse myofibroblasts (TGF-β 48 h), 30 and 90 min, 3 independent experiments. The format is cell-based. As to the method:
Cell culture for ERK1/2 phosphorylation assay - The RXFP1 downstream ERK1/2 phosphorylation pathway was tested on myofibroblasts using a method based on that described by [Hossain et al. (2016)], with minor modifications. Mouse NIH-3T3 fibroblasts (ATCC, Manassas, VA, United States) expressing RXFP1 ([Sassoli et al., 2013]) were cultured in DMEM supplemented with 10% fetal bovine serum (FBS), 2 mm glutamine, 250 U/ml penicillin G and 250 μg/ml streptomycin, in a humidified atmosphere with 5% CO2 at 37°C. They were induced to myofibroblasts in DMEM containing 2% FBS and 2 ng/ml human TGF-β1 (PeproTech, Rocky Hill, NJ, United States) for 12, 24, 48 and 72 h ([Sassoli et al., 2013]). Myofibroblasts were then incubated for 30 or 90 min with either serelaxin (17 nM), or B7-33 (1.7 μM), or the H1 peptides 6 and 7 (1.7 μM), selected among those which had shown a minimal ability to bind RXFP1 in the competition binding experiments. Untreated myofibroblasts were used as controls. To verify fibroblast-to-myofibroblast transition and ERK1/2 phosphorylation, cells were lysed in cold buffer composed of (mM): 10 Tris/HCl pH 7.4, 10 NaCl, 1.5 MgCl2, 2 Na2EDTA, 1% Triton X-100, added with 10x Sigmafast Protease Inhibitor Cocktail tablets and […] Na3VO4 to inhibit endogenous phosphatases. Total protein content was measured spectrophotometrically using micro-BCA Protein Assay Kit (Pierce). Sixty μg of total proteins were electrophoresed by SDS–PAGE and blotted onto PVDF membranes (Millipore, Bedford, MA, United States). […] Specific bands were detected using appropriate peroxidase-labeled secondary antibodies (1:15,000; Vector, Burlingame, CA, United States) and enhanced chemiluminescent substrate (ECL, Sigma-Aldrich). […]

For data set [4] the following is noted: i.v. administration; ref Chen et al., 1993; cited from earlier work. As to the method: Since recombinant human H2 relaxin (RLX), later termed serelaxin, was made available as clinical-grade drug ([Stults et al., 1990]), several clinical trials have been performed to explore its therapeutic potential, particularly as cardiovascular and anti-fibrotic agent ([Bani 2020]; [Samuel and Bennett 2021]; [Sassoli et al., 2022]). The last RELAX-AHF-2 phase III trial was performed under the auspices of Novartis Europharm Ltd., owner of the serelaxin patent, to assess its efficacy in patients with heart failure. Regrettably, in spite of encouraging theoretical premises and pre-clinical evide ...

Data set [5] relates to RXFP1. Description: cAMP generation in human monocytic THP-1 cells (RXFP1 downstream pathway), Direct cAMP ELISA. The format is cell-based. As to conditions: serelaxin 17 nm, 15 min, IBMX 100 μM, 3 independent experiments. Here is the method:
Cell culture for cAMP assay—The RXFP1 downstream cAMP pathway was tested on human monocytic THP-1 cells (ECACC, Salisbury, UK) cultured in suspension in RPMI medium containing 10% foetal bovine serum, 0.05 mm 2-mercaptoethanol, 250 U/ml penicillin G and 250 μg/ml streptomycin, in a 5% CO2 atmosphere at 37°C. Cells (5 × 10^5) were placed in a 24-well plate, added with IBMX (100 μM) to prevent cAMP catabolism and then incubated with the different stimulants. As positive controls, either serelaxin (17 nm) and B7-33 (17, 170, 1700 nm) were used. The H1 peptides 4, 6 and 7, selected among those which had shown a minimal ability to bind RXFP1 in the competition binding experiments, were also used at 17, 170 and 1700 nm final concentration. The cAMP assay was carried out 15 min after RXFP1 stimulation, coinciding with the second sustained cAMP surge ([Nguyen et al., 2003]; [Bani et al., 2007]). The adenylate cyclase activator forskolin (100 μM) was used to determine the maximal cAMP levels. Triplicate cAMP measurements were performed by a Direct cAMP ELISA Kit (Enzo, Milan, Italy). […] The values of cAMP were normalized by the amount of proteins, measured by the micro-BCA Protein Assay Kit (Pierce, IL, United States) and expressed as mg/ml. For statistical purposes, 3 independent experiments were performed.
(In general: In an ELISA, binding on a coated surface is turned into a signal by an enzyme label.)

Regarding “[Ser10,22]Cyclo[LysN3 17, Pra21]H1RLXB(1-23) (peptide)”, the percent competition of Eu-H2 relaxin binding at 10 µM in data set [1] is 20%.

In turn, “[Ser10,22]Cyclo[Pra17, LysN3 21]H1RLXB(1-23) (peptide)” showed a percent competition of Eu-H2 relaxin binding at 10 µM in data set [1] of 20%.

With “[Ser^10,22]Cyclo[LysN3 ^17, Pra^21]H1RLXB(1–23) [compound 7]”, in data set [2], the “competition of Eu-H2 relaxin binding” value is reported as approximately 20%. For the same substance, in the data set on RXFP1 [3] (peptide 1.7 μM), the ERK1/2 phosphorylation entry was “neither of the H1 peptides 6 and 7 were capable of reproducing the effects of the authentic hormone”.

On to “[Ser^10,22]Cyclo[Pra^14, LysN3 ^18]H1RLXB(1–23) [compound 4]”, for which the “competition of Eu-H2 relaxin binding” value in data set [2] is approximately 20%.

On to “[Ser^10,22]Cyclo[Pra^17, LysN3 ^21]H1RLXB(1–23) [compound 6]”, for which, in data set [2], the “competition of Eu-H2 relaxin binding” value is listed as approximately 20%. For the same substance, the ERK1/2 phosphorylation result with RXFP1 [3] (peptide 1.7 μM) is “neither of the H1 peptides 6 and 7 were capable of reproducing the effects of the authentic hormone”.

As to serelaxin, the half-life – broadly, the time needed for the level to fall by half in the phase considered – in data set [4] is listed as approximately 2 h. Moreover, the ERK1/2 phosphorylation result in the data set with RXFP1 [3] (serelaxin 17 nM) is recorded as “statistically significant increase in ERK1/2 phosphorylation”. In the data set with RXFP1 [5], the “elevation of cAMP” value is reported as “statistically significant elevation of cAMP”.
